For the experiment, the target named is TARP γ8 dependent AMPA receptor (GluA1o-g8 fusion channel) (Homo sapiens (Human), UniProt P42261+Q8WXS5). The experiment can be described thus: Calcium flux assay (FLIPR), HEK293 cells expressing GRIA1o-CACNG8 fusion. It is filed as cell-based. As to conditions: inhibition of calcium flux after 15 μM glutamate, read-out: GluR1-γ8 pIC50 (converted). Put shortly: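 Stable HEK293 clone expressing GluA1o-γ8 fusion (1:1 stoichiometry), loaded with Calcium-5/6 dye plus test compound; glutamate-evoked fluorescence normalized to control wells. Concentration-response fitted to four-parameter logistic, midpoint taken as inhibitory potency.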

This note sets out measurements from patent US10611730B2, “Benzimidazolone and benzothiazolone compounds and their use as AMPA receptor modulators” (Janssen Pharmaceutica NV, priority 2015, dated 2020).

Sequence of TARP γ8 dependent AMPA receptor (GluA1o-g8 fusion channel) (P42261 other isoform, or with tags, fused parts or gaps): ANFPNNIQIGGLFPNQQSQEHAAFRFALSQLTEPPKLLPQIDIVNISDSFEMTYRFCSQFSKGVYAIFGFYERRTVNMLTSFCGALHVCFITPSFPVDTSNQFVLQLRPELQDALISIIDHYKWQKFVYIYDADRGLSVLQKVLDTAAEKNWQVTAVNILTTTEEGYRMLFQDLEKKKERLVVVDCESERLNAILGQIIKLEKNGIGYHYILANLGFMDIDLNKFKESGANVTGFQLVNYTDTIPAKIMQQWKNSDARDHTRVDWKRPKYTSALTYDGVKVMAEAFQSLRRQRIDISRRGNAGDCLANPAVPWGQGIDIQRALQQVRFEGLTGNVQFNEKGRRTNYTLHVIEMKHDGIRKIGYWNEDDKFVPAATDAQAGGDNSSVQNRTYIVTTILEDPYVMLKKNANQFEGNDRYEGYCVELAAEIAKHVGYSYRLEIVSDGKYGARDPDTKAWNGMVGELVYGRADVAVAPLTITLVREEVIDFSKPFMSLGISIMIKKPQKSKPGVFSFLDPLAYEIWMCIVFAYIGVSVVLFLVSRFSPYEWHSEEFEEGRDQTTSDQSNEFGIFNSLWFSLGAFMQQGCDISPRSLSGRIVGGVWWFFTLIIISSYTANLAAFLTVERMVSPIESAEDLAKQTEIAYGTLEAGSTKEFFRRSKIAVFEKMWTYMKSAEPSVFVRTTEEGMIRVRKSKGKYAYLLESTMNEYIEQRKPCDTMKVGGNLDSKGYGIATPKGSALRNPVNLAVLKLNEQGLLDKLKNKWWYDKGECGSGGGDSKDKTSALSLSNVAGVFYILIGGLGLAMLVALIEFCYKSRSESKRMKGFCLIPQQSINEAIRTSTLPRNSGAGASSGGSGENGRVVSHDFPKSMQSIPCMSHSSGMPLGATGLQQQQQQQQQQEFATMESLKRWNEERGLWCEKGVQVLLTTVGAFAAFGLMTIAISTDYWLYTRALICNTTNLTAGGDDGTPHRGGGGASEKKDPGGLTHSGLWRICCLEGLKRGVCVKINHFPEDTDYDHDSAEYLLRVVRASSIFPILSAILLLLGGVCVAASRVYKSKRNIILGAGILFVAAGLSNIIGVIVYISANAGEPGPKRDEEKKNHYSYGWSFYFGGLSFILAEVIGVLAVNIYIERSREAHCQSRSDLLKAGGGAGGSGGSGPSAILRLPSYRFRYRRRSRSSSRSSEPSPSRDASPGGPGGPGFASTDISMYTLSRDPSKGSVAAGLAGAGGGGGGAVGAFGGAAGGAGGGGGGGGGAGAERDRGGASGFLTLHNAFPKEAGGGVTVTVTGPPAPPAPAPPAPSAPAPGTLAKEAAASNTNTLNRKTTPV

Turning to `CC(C)(C)OC(=O)N1CCN(c2ccccc2-c2ccc3[nH]c(=O)[nH]c3c2)CC1` [Example 9, tert-Butyl 4-[2-(2-oxo-1,3-dihydrobenzimidazol-5-yl)phenyl]piperazine-1-carboxylate], the IC50 was 794 nM.

Regarding `CC(C)Oc1cccc(C(F)(F)F)c1-c1ccc2[nH]c(=O)[nH]c2c1` [Example 108, 5-[2-Isopropoxy-6-(trifluoromethyl)phenyl]-1,3-dihydrobenzimidazol-2-one], the IC50 was 79.4 nM.

Turning to `N#CCc1cccc(Br)c1-c1ccc2[nH]c(=O)[nH]c2c1` [Example 132, 2-[3-Bromo-2-(2-oxo-1,3-dihydrobenzimidazol-5-yl)phenyl]acetonitrile], the IC50 was 31.6 nM.

With `COC(=O)c1cccc(-c2ccc3[nH]c(=O)[nH]c3c2)c1C` [Example 46, Methyl 2-methyl-3-(2-oxo-1,3-dihydrobenzimidazol-5-yl)benzoate], the IC50 is 50.1 nM.

Take `Cc1c(CN2CCSCC2)cccc1-c1ccc2[nH]c(=O)[nH]c2c1` [Example 154, 5-[2-Methyl-3-(thiomorpholinomethyl)phenyl]-1,3-dihydrobenzimidazol-2-one]: the IC50 was 200 nM.

On to `N#Cc1ccc(Cl)c(-c2ccc3[nH]c(=O)[nH]c3c2)c1` [Example 40, 4-Chloro-3-(2-oxo-1,3-dihydrobenzimidazol-5-yl)benzonitrile], for which the IC50 was 1580 nM.

Regarding `COC1CCN(c2cccc(-c3ccc4[nH]c(=O)sc4c3)c2Cl)CC1` [Example 213, 6-(2-Chloro-3-(4-methoxypiperidin-1-yl)phenyl)benzo[d]thiazol-2(3H)-one], the IC50 is 2510 nM.

On to `Cc1c(-c2ccc3[nH]c(=O)sc3c2)cccc1-c1noc(C2CC2)n1` [Example 74, 6-[3-(5-Cyclopropyl-1,2,4-oxadiazol-3-yl)-2-methyl-phenyl]-3H-1,3-benzothiazol-2-one], for which the IC50 is 3980 nM.

For `O=c1[nH]c2ccc(-c3c(Cl)cccc3C(F)(F)F)cc2[nH]1` [Example 12, 5-[2-Chloro-6-(trifluoromethyl)phenyl]-1,3-dihydrobenzimidazol-2-one], the IC50 is 631 nM.

Take `Cc1cccc(-c2ccc(F)cc2)c1-c1ccc2[nH]c(=O)[nH]c2c1` [Example 181, 5-[2-(4-Fluorophenyl)-6-methyl-phenyl]-1,3-dihydrobenzimidazol-2-one]: the IC50 is 100 nM.

Regarding `O=c1[nH]c2ccc(-c3cccc(OC4CC4)c3Cl)cc2[nH]1` [Example 109, 5-[2-Chloro-3-(cyclopropoxy)phenyl]-1,3-dihydrobenzimidazol-2-one], the IC50 was 39.8 nM.

Take `O=c1[nH]c2ccc(-c3ccccc3Cl)cc2[nH]1` [Example 17, 5-(2-Chlorophenyl)-1,3-dihydrobenzimidazol-2-one]: the IC50 is 631 nM.

Consider `CNC(=O)Cc1c(-c2ccc3[nH]c(=O)[nH]c3c2)cccc1C(F)(F)F` [Example 78, N-Methyl-2-[2-(2-oxo-1,3-dihydrobenzimidazol-5-yl)-6-(trifluoromethyl)phenyl] acetamide], for which the IC50 was 200 nM.

Consider `Cc1c(C(=O)NC2CC2)cccc1-c1ccc2[nH]c(=O)[nH]c2c1` [Example 80, N-Cyclopropyl-2-methyl-3-(2-oxo-1,3-dihydrobenzimidazol-5-yl)benzamide], for which the IC50 is 3980 nM.

As to `Cc1c(C#N)cccc1-c1ccc2[nH]c(=O)[nH]c2c1` [Example 67, 2-Methyl-3-(2-oxo-1,3-dihydrobenzimidazol-5-yl)benzonitrile], the IC50 was 251 nM.

`COC(=O)c1cccc(Cl)c1-c1ccc2[nH]c(=O)[nH]c2c1` [Example 42, Methyl 3-chloro-2-(2-oxo-1,3-dihydrobenzimidazol-5-yl)benzoate]: the IC50 was 501 nM.

On to `Cc1c(CN2CCOC(C)(C)C2)cccc1-c1ccc2[nH]c(=O)[nH]c2c1` [Example 149, 5-[3-[(2,2-Dimethylmorpholin-4-yl)methyl]-2-methyl-phenyl]-1,3-dihydrobenzimidazol-2-one], for which the IC50 was 20 nM.

Regarding `N#Cc1c(Br)cccc1-c1ccc2[nH]c(=O)[nH]c2c1` [Example 63, 2-Bromo-6-(2-oxo-1,3-dihydrobenzimidazol-5-yl)benzonitrile], the IC50 is 631 nM.

In the case of `O=c1[nH]c2ccc(-c3c(Cl)cccc3OC3CC3)cc2[nH]1` [Example 90, 5-[2-Chloro-6-(cyclopropoxy)phenyl]-1,3-dihydrobenzimidazol-2-one], the IC50 is 251 nM.

On to `CN1CCN(Cc2cccc(Cl)c2-c2ccc3[nH]c(=O)[nH]c3c2)CC1` [Example 146, 5-[2-Chloro-6-[(4-methylpiperazin-1-yl)methyl]phenyl]-1,3-dihydrobenzimidazol-2-one], for which the IC50 was 7940 nM.

In the case of `Cc1c(-c2ccc3[nH]c(=O)[nH]c3c2)cccc1-c1noc(-c2ccncc2)n1` [Example 75, 5-[2-Methyl-3-[5-(4-pyridyl)-1,2,4-oxadiazol-3-yl]phenyl]-1,3-dihydrobenzimidazol-2-one], the IC50 is 20 nM.

`Cc1c(-c2ccc3[nH]c(=O)[nH]c3c2)cccc1-c1nnco1` [Example 194, 5-[2-Methyl-3-(1,3,4-oxadiazol-2-yl)phenyl]-1,3-dihydrobenzimidazol-2-one]: the IC50 is 501 nM.

Regarding `N#Cc1ccc(Cl)c(-c2ccc3[nH]c(=O)[nH]c3c2)c1OC(F)(F)F` [Example 209, 4-Chloro-3-(2-oxo-1,3-dihydrobenzimidazol-5-yl)-2-(trifluoromethoxy)benzonitrile], the IC50 was 15.8 nM.

Take `CC(C)c1ccccc1-c1ccc2[nH]c(=O)[nH]c2c1` [Example 6, 5-(2-Isopropylphenyl)-1,3-dihydrobenzimidazol-2-one]: the IC50 was 316 nM.

For the molecule `Cc1c(C(=O)N(C)C)cccc1-c1ccc2[nH]c(=O)[nH]c2c1` [Example 81, N,N,2-Trimethyl-3-(2-oxo-1,3-dihydrobenzimidazol-5-yl)benzamide], the IC50 was 3160 nM.

Turning to `O=c1[nH]c2ccc(-c3cccc4cccnc34)cc2[nH]1` [Example 58, 5-(8-Quinolyl)-1,3-dihydrobenzimidazol-2-one], the IC50 was 3160 nM.

Take `Cn1cc(-c2cccc(Cl)c2-c2ccc3[nH]c(=O)[nH]c3c2)cn1` [Example 173, 5-[2-Chloro-6-(1-methylpyrazol-4-yl)phenyl]-1,3-dihydrobenzimidazol-2-one]: the IC50 was 398 nM.

In the case of `Cc1c(CN2CCOCC2)cccc1-c1ccc2[nH]c(=O)[nH]c2c1` [Example 148, 5-[2-Methyl-3-(morpholinomethyl)phenyl]-1,3-dihydrobenzimidazol-2-one], the IC50 was 2000 nM.

As to `O=c1[nH]c2ccc(-c3c(Cl)cccc3NCc3ccoc3)cc2[nH]1` [Example 87, 5-[2-Chloro-6-(3-furylmethylamino)phenyl]-1,3-dihydrobenzimidazol-2-one], the IC50 was 126 nM.

With `COc1cccc(OC(C)(C)C)c1-c1ccc2[nH]c(=O)[nH]c2c1` [Example 117, 5-(2-tert-Butoxy-6-methoxy-phenyl)-1,3-dihydrobenzimidazol-2-one], the IC50 was 1000 nM.

Consider `O=c1[nH]c2cc(-c3c(Cl)cccc3OC(F)(F)F)cc(F)c2[nH]1` [Example 214, 6-(2-chloro-6-(trifluoromethoxy)phenyl)-4-fluoro-1,3-dihydro-2H-benzo[d]imidazol-2-one], for which the IC50 was 2.51 nM.

Turning to `N#CCc1cccc(-c2ccc(F)cc2)c1-c1ccc2[nH]c(=O)[nH]c2c1` [Example 135, 2-[3-(4-Fluorophenyl)-2-(2-oxo-1,3-dihydrobenzimidazol-5-yl)phenyl]acetonitrile], the IC50 was 20 nM.

Consider `Cc1ccc(C#N)cc1-c1ccc2[nH]c(=O)[nH]c2c1` [Example 39, 4-Methyl-3-(2-oxo-1,3-dihydrobenzimidazol-5-yl)benzonitrile], for which the IC50 is 1580 nM.

With `O=c1[nH]c2ccc(-c3c(Cl)cccc3-c3ccc(F)nc3)cc2[nH]1` [Example 167, 5-[2-Chloro-6-(6-fluoro-3-pyridyl)phenyl]-1,3-dihydrobenzimidazol-2-one], the IC50 was 316 nM.

Turning to `O=c1[nH]c2ccc(-c3cccc(CN4CCCCC4)c3Cl)cc2[nH]1` [Example 142, 5-[2-Chloro-3-(1-piperidylmethyl)phenyl]-1,3-dihydrobenzimidazol-2-one], the IC50 was 631 nM.

Turning to `CC(C)Oc1cccc(-c2ccc3[nH]c(=O)[nH]c3c2)c1Cl` [Example 110, 5-(2-Chloro-3-isopropoxy-phenyl)-1,3-dihydrobenzimidazol-2-one], the IC50 was 31.6 nM.

In the case of `Cc1c(-c2cccc(Cl)c2-c2ccc3[nH]c(=O)[nH]c3c2)cnn1C` [Example 177, 5-[2-Chloro-6-(1,5-dimethylpyrazol-4-yl)phenyl]-1,3-dihydrobenzimidazol-2-one], the IC50 was 794 nM.

On to `O=c1[nH]c2ccc(-c3c(Cl)cccc3OCC(F)(F)F)cc2[nH]1` [Example 95, 5-[2-Chloro-6-(2,2,2-trifluoroethoxy)phenyl]-1,3-dihydrobenzimidazol-2-one], for which the IC50 is 50.1 nM.

`Cc1c(CN2CCOC(C(F)(F)F)C2)cccc1-c1ccc2[nH]c(=O)[nH]c2c1` (racemic) [Example 151, (±)-5-[2-Methyl-3-[[2-(trifluoromethyl)morpholin-4-yl]methyl]phenyl]-1,3-dihydrobenzimidazol-2-one]: the IC50 was 31.6 nM.

`Cc1noc(-c2cccc(-c3ccc4[nH]c(=O)[nH]c4c3)c2C)n1` [Example 203, 5-[2-Methyl-3-(3-methyl-1,2,4-oxadiazol-5-yl)phenyl]-1,3-dihydrobenzimidazol-2-one]: the IC50 was 39.8 nM.

On to `O=c1[nH]c2ccc(-c3c(Cl)cccc3-c3cccnc3)cc2[nH]1` [Example 165, 5-[2-Chloro-6-(3-pyridyl)phenyl]-1,3-dihydrobenzimidazol-2-one], for which the IC50 was 126 nM.

Consider `O=c1[nH]c2ccc(-c3c(Cl)cc(F)cc3Cl)cc2[nH]1` [Example 50, 5-(2,6-Dichloro-4-fluoro-phenyl)-1,3-dihydrobenzimidazol-2-one], for which the IC50 is 158 nM.

Turning to `COc1cccc(OCc2ccc(F)cc2)c1-c1ccc2[nH]c(=O)[nH]c2c1` [Example 106], the IC50 is 39.8 nM.
